From the supplement of paper PMC10627819

Tests used:
B. subtilis 168 [1] = test: fitness (endpoint OD595 vs no drug) (fraction); higher = more growth
How it was run: (§1)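 Cultures at OD595 0.01 were dispensed into 384-well plates in TSB, LB Lennox or CY and incubated at 37 °C. Every 30 min for 14 h, OD595 was read and corrected by the first reading. Fitness is the optical density at entry into stationary phase relative to the robust mean of no-drug control wells, capped at 1.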

S. pneumoniae D39V [2] = test: as above
How it was run: as §1

S. aureus DSM 20231 [3] = test: as above
How it was run: as §1

S. aureus Newman [4] = test: as above
How it was run: as §1

B. subtilis 168 [5] = test: Bliss interaction score (quartile over a dose matrix) (fitness difference); higher = more antagonism (negative = synergy)
How it was run: (§2)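 At entry into stationary phase, OD595 was recorded and divided by the robust mean of the no-drug wells on that plate, with any value above 1 set to 1. This gives the fitness measure used throughout. Single-drug fitness was inferred from combination data, and the Bliss score, observed minus product-expected fitness, is shown as quartiles across technical, biological and donor/recipient replicates.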

S. pneumoniae D39V [6] = test: as above
How it was run: as §2

S. aureus DSM 20231 [7] = test: as above
How it was run: as §2

S. aureus Newman [8] = test: as above
How it was run: as §2
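Wherever Bliss interaction score (quartile over a dose matrix) is given: first quartile when negative (synergy) and third quartile when positive (antagonism).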

Cn1c2cccc(=O)c-2nc2ccccc21 [Pyocyanin] + CN(N=O)C(=O)N[C@@H](C=O)[C@@H](O)[C@H](O)[C@H](O)CO [Streptozotocin]
fitness, one replicate
Details | partner 0.15 µg/mL | partner 0.3 µg/mL | partner 0.6 µg/mL | partner 1.2 µg/mL | partner 2.4 µg/mL | partner 4.8 µg/mL
B. subtilis 168 [1], first compound 1.25 µg/mL | 0.99 | 0.918 | 0.96 | – | – | –
B. subtilis 168 [1], first compound 2.5 µg/mL | 0.777 | 0.903 | 0.873 | – | – | –
B. subtilis 168 [1], first compound 5 µg/mL | 0.687 | 0.729 | 0.777 | – | – | –
S. pneumoniae D39V [2], first compound 1.3 µg/mL | – | – | – | 0.626 | 0.683 | 0.783

fitness
Details | partner 0.15 µg/mL | partner 0.3 µg/mL | partner 0.6 µg/mL | partner 1.2 µg/mL | partner 2.4 µg/mL | partner 4.8 µg/mL
S. aureus DSM 20231 [3], first compound 1.25 µg/mL | 0.836 | 0.852 | 0.711 | – | – | –
S. aureus DSM 20231 [3], first compound 2.5 µg/mL | 0.803 | 0.772 | 0.676 | – | – | –
S. aureus DSM 20231 [3], first compound 5 µg/mL | 0.626 | 0.617 | 0.517 | – | – | –
S. aureus Newman [4], first compound 1.25 µg/mL | 0.788 | 0.633 | 0.494 | – | – | –
S. aureus Newman [4], first compound 2.5 µg/mL | 0.695 | 0.591 | 0.385 | – | – | –
S. aureus Newman [4], first compound 5 µg/mL | 0.265 | 0.249 | 0.167 | – | – | –
S. pneumoniae D39V [2], first compound 0.325 µg/mL | – | – | – | 0.951 | 0.912 | 0.928
S. pneumoniae D39V [2], first compound 0.65 µg/mL | – | – | – | 0.973 | 0.964 | 0.965

Details | Bliss interaction score
B. subtilis 168 [5] | -0.0597
S. aureus DSM 20231 [7] | 0.0692
S. aureus Newman [8] | -0.0417
S. pneumoniae D39V [6] | -0.0715

C[n+]1ccc(-c2cc[n+](C)cc2)cc1 [Paraquat] + CN[C@@H]1[C@H](O)[C@H](NC)[C@H]2O[C@@]3(O)C(=O)C[C@@H](C)O[C@H]3O[C@@H]2[C@H]1O [Spectinomycin]
fitness
Details | first compound 1.25 µg/mL | first compound 1.5 µg/mL | first compound 2.5 µg/mL | first compound 3 µg/mL | first compound 5 µg/mL | first compound 6 µg/mL
B. subtilis 168 [1], partner 2 µg/mL | 0.97 | – | 0.989 | – | 0.902 | –
B. subtilis 168 [1], partner 4 µg/mL | 0.986 | – | 0.964 | – | 0.847 | –
B. subtilis 168 [1], partner 8 µg/mL | 0.877 | – | 0.882 | – | 0.847 | –
S. aureus DSM 20231 [3], partner 4 µg/mL | 0.946 | – | 0.909 | – | 0.844 | –
S. aureus DSM 20231 [3], partner 8 µg/mL | 0.913 | – | 0.844 | – | 0.817 | –
S. aureus DSM 20231 [3], partner 16 µg/mL | 0.837 | – | 0.874 | – | 0.758 | –
S. aureus Newman [4], partner 4 µg/mL | 0.857 | – | 0.85 | – | 0.825 | –
S. aureus Newman [4], partner 8 µg/mL | 0.872 | – | 0.825 | – | 0.906 | –
S. aureus Newman [4], partner 16 µg/mL | 0.89 | – | 0.849 | – | 0.833 | –
S. pneumoniae D39V [2], partner 4 µg/mL | – | 0.964 | – | 0.976 | – | 0.995
S. pneumoniae D39V [2], partner 8 µg/mL | – | 0.958 | – | 0.969 | – | 0.951

fitness, one replicate
Details | first compound 1.25 µg/mL | first compound 1.5 µg/mL | first compound 2.5 µg/mL | first compound 3 µg/mL | first compound 5 µg/mL | first compound 6 µg/mL
S. aureus DSM 20231 [3], partner 32 µg/mL | 0.669 | – | 0.713 | – | 0.735 | –
S. aureus DSM 20231 [3], partner 64 µg/mL | 0.0748 | – | 0.0594 | – | 0.0636 | –
S. aureus Newman [4], partner 32 µg/mL | 0.62 | – | 0.6 | – | 0.563 | –
S. aureus Newman [4], partner 64 µg/mL | 0.0529 | – | 0.0827 | – | 0.106 | –
S. pneumoniae D39V [2], partner 16 µg/mL | – | 0.851 | – | 0.856 | – | 0.913

Details | Bliss interaction score
B. subtilis 168 [5] | 0.0537
S. aureus DSM 20231 [7] | -0.046
S. aureus Newman [8] | 0.0596
S. pneumoniae D39V [6] | 0.0349
